Patent US12662491B2 (Redona Therapeutics, Inc., priority 2020, dated 2026)
Where two headings read alike, the source gives them in different places.

Biological target: T1, Zcchc11 enzyme (Homo sapiens, UniProt Q5TAX3)
T1 construct: made in house; host or cells: HEK293 cells (Zcchc11); E. coli Rosetta II (LIN28A)
T1 sequence (Q5TAX3 212-1420): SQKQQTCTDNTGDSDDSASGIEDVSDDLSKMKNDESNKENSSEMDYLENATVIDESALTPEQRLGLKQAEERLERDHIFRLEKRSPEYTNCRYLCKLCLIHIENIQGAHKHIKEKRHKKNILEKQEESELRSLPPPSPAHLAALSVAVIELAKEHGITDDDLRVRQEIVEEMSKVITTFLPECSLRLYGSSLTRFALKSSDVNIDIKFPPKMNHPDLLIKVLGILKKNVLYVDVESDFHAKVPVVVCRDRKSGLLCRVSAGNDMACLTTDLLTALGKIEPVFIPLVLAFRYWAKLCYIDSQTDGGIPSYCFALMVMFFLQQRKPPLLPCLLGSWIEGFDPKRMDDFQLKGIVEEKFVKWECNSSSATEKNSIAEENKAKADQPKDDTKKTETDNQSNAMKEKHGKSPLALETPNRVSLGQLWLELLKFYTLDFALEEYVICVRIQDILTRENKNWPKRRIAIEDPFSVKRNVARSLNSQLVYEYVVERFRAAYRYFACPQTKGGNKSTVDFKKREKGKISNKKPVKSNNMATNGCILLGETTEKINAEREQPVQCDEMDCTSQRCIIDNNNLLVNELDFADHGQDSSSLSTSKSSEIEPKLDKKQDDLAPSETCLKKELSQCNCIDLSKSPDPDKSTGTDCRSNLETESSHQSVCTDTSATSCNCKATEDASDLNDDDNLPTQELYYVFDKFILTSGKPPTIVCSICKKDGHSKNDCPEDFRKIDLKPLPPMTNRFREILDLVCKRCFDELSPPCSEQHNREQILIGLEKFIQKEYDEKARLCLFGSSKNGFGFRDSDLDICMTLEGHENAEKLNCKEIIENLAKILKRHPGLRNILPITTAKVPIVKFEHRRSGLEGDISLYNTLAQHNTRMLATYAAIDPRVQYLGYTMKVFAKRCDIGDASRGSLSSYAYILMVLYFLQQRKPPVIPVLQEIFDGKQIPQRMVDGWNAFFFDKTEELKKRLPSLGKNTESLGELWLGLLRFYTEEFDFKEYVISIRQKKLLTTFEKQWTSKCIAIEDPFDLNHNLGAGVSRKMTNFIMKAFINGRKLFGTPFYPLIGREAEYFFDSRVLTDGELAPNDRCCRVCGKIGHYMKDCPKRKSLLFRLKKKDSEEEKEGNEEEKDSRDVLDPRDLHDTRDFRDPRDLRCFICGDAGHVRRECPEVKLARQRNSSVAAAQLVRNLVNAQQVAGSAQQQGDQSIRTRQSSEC
Test: TUTase assay (Zcchc11 assay, Lin28a-dependent polyuridylation of pre-let-7)
Format: biochemical
Conditions: read-out: Potency Lin28a-dep Z11 IC50
In short: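 Readout: time-dependent quench of 5′-fluorescein pre-let-7 (2 nM) as 3′-rhodamine A20 probe anneals to poly(U) tails. Enzyme 0.2 nM Zcchc11 (res. 212-1420), LIN28A 10 nM, UTP 5 uM; pH 7.3 HEPES, 150 mM KCl, 5 mM MgCl2, RT. 4-parameter IC50; 100% = DMSO, 0% = no UTP.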

[1] = Lin28a-dependent Zcchc11 (Z11) TUTase activity
[2] = Lin28a-dependent Zcchc11 (Z11) TUTase assay

IC50 [1]	IC50 [2]	also measured	SMILES
≤ 1000 nM	–	–	COc1ccc(Cl)c(OC[C@H]2C[C@H]3C[C@H]3N2c2cc3c(cc2Cl)c(=O)c(C(=O)O)cn3-c2ccc(N(C)C)nc2)n1 [Compound 341, 6-Chloro-7-[(1R,3R,5R)-3-{[(3-chloro-6-methoxy-pyridin-2 yl)oxy]methyl}-2-azabicyclo [3.1.0]hexan-2-yl]-1-[6-(dimethyl-amino)pyridin-3-yl]-4-oxoquinoline-3-carboxylic acid]
≤ 1000 nM	–	–	COc1cccnc1OC[C@H]1CCCN1c1cc2c(cc1F)c(=O)c(C(=O)O)cn2-c1ccccc1 [Compound 99, (R)-6-fluoro-7-(2-(((3-methoxy-pyridin-2-yl)oxy)methyl)pyrrolidin-1-yl)-4-oxo-1-phenyl-1,4-dihydro-quinoline-3-carboxylic acid]
–	≤ 1000 nM	–	O=C(O)c1cn(-c2ccnc(O)c2)c2cc(N3CCC[C@@H]3COc3ncccc3Cl)c(Cl)cc2c1=O [Example 428, (R)-6-chloro-7-(2-(((3-chloropyridin-2-yl)oxy)methyl)pyrrolidin-1-yl)-1-(2-hydroxypyridin-4-yl)-4-oxo-1,4-dihydroquinoline-3-carboxylic acid]
–	≤ 1000 nM	–	Cc1cc2c(=O)c(C(=O)O)cn(-c3ccc(N4CC(N(C)C)C4)nc3)c2cc1N1CCC[C@@H]1COc1ncccc1F [Example 528, (R)-1-(6-(3-(dimethylamino)azetidin-1-yl)pyridin-3-yl)-7-(2-(((3-fluoropyridin-2-yl)oxy)methyl)pyrrolidin-1-yl)-6-methyl-4-oxo-1,4-dihydroquinoline-3-carboxylic acid]
–	1000 to 10000 nM	–	COC1CC(n2cc(C(=O)O)c(=O)c3cc(F)c(N4CCC[C@@H]4COc4ccccn4)cc32)C1 (stereo partly drawn) [Example 359, (R)-6-fluoro-1-(3-methoxycyclo-butyl)-4-oxo-7-(2-((pyridin-2-yloxy)methyl)pyrrolidin-1-yl)-1,4-dihydro-quinoline-3-carboxylic acid]
≤ 1000 nM	–	–	Cn1cc(-n2cc(C(=O)O)c(=O)c3cc(C#N)c(N4CCCC4COc4ncccc4F)cc32)cn1 (racemic) [Compound 245, rac-(R)-6-cyano-7-(2-(((3-fluoropyridin-2-yl)oxy)methyl)pyrrolidin-1-yl)-1-(1-methyl-1H-pyrazol-4-yl)-4-oxo-1,4-dihydro-quinoline-3-carboxylic acid]
–	1000 to 10000 nM	–	O=C(O)c1cn(C2CC2)c2cc(N3CCC[C@@H]3COc3ccccn3)c(F)cc2c1=O [Example 447, (R)-1-cyclopropyl-6-fluoro-4-oxo-7-(2-((pyridin-2-yloxy)methyl)pyrrolidin-1-yl)-1,4-dihydroquinoline-3-carboxylic acid]
–	1000 to 10000 nM	–	CC(=O)NC1CCC(n2cc(C(=O)O)c(=O)c3cc(F)c(N4CCC[C@@H]4COc4ccccn4)cc32)CC1 (stereo partly drawn) [Example 358, 1-(4-acetamidocyclo-hexyl)-6-fluoro-4-oxo-7-[(2R)-2-[(pyridin-2-yloxy)methyl]pyrrolo-1-yl]-1,4-dihydroquinoline-3-carboxylic acid]
–	≤ 1000 nM	–	COc1ccc(Cl)c(OC[C@H]2CC(C)(C)CN2c2cc3c(cc2Cl)c(=O)c(C(=O)O)cn3-c2ccnc(N)c2)n1 [Example 650, (R)-1-(2-aminopyridin-4-yl)-6-chloro-7-(2-(((3-chloro-6-methoxypyridin-2-yl)oxy)methyl)-4,4-dimethylpyrrolidin-1-yl)-4-oxo-1,4-dihydroquinoline-3-carboxylic acid]
–	≤ 1000 nM	–	COCCOc1ccc(-n2cc(C(=O)O)c(=O)c3cc(Cl)c(N4CCC[C@@H]4COc4ncccc4Cl)cc32)cn1 [Example 415, (R)-6-chloro-7-(2-(((3-chloropyridin-2-yl)oxy)methyl)pyrrolidin-1-yl)-1-(6-(2-methoxy-ethoxy)pyridin-3-yl)-4-oxo-1,4-dihydroquinoline-3-carboxylic acid]
≤ 1000 nM	–	–	Cc1ccc(Cl)c(OC[C@H]2C[C@H]3C[C@H]3N2c2cc3c(cc2Cl)c(=O)c(C(=O)O)cn3-c2ccc(N(C)C)nc2)n1 [Compound 308, 6-chloro-7-[(1R,3R,5R)-3-{[(3-chloro-6-methylpyridin-2-yl)oxy]methyl}-2-azabicyclo [3.1.0]hexan-2-yl]-1-[6-(dimethyl-amino)pyridin-3-yl]-4-oxoquinoline-3-carboxylic acid]
–	≤ 1000 nM	–	CCc1cc2c(=O)c(C(=O)O)cn(-c3cnccn3)c2cc1N1CCC[C@@H]1COc1ncccc1Cl [Example 551, (R)-7-(2-(((3-chloropyridin-2-yl)oxy)methyl)pyrrolidin-1-yl)-6-ethyl-4-oxo-1-(pyrazin-2-yl)-1,4-dihydroquinoline-3-carboxylic acid]
≤ 1000 nM	–	–	COCCOc1ccc(-n2cc(C(=O)O)c(=O)c3cc(F)c(N4CCC[C@@H]4COc4ncccc4C)cc32)cc1 [Compound 124, (R)-6-fluoro-1-(4-(2-methoxyethoxy)phenyl)-7-(2-(((3-methylpyridin-2-yl)oxy)methyl)pyrrolidin-1-yl)-4-oxo-1,4-dihydro-quinoline-3-carboxylic acid]
–	≤ 1000 nM	–	O=C(O)c1cn(-c2ccc(F)cc2)c2cc(N3CCC[C@@H]3COc3ccccn3)c(F)cc2c1=O [Example 378, (R)-6-fluoro-1-(4-fluorophenyl)-4-oxo-7-(2-((pyridin-2-yloxy)methyl)pyrrolidin-1-yl)-1,4-dihydroquinoline-3-carboxylic acid]
–	≤ 1000 nM	–	CN(C)C1CN(c2ccc(-n3cc(C(=O)O)c(=O)c4cc(Cl)c(N5[C@@H](COc6nc(OC7CC7)ccc6Cl)C[C@H]6C[C@H]65)cc43)cn2)C1 [Example 672, 6-chloro-7-((1R,3R,5R)-3-(((3-chloro-6-cyclopropoxy-pyridin-2-yl)oxy)methyl)-2-azabicyclo[3.1.0]hexan-2-yl)-1-(6-(3-(dimethylamino)azetidin-1-yl)pyridin-3-yl)-4-oxo-1,4-dihydroquinoline-3-carboxylic acid]
–	1000 to 10000 nM	–	O=C(O)c1cn(C2CCNC2)c2cc(N3CCC[C@@H]3COc3ncccc3Cl)c(Cl)cc2c1=O (stereo partly drawn) [Example 367, 6-chloro-7-[(2R)-2-{[(3-chloro-pyridin-2-yl)oxy)methyl}pyrrolidin-1-yl]-4-oxo-1-(pyrrolidin-3-yl)-1,4-dihydroquinoline-3-carboxylic acid]
–	≤ 1000 nM	–	CN(C)C1CN(c2ccc(-n3cc(C(=O)O)c(=O)c4cc(F)c(N5CCC[C@@H]5COc5ncccc5Cl)cc43)cn2)C1 [Example 510, (R)-7-(2-(((3-chloropyridin-2-yl)oxy)methyl)pyrrolidin-1-yl)-1-(6-(3-(dimethylamino)azetidin-1-yl)pyridin-3-yl)-6-fluoro-4-oxo-1,4-dihydroquinoline-3-carboxylic acid]
–	–	IC50 (LIN28A 10 nM, Zcchc11 0.2 nM, 5′-fluorescein pre-let-7 miRNA 2 nM, UTP 5 uM, room temperature, 30 minutes pre-incubation): ≤ 1000 nM	Cc1cccnc1OC[C@H]1CC(C)CN1c1cc2c(cc1F)c(=O)c(C(=O)O)cn2-c1ccc(O)cc1 (stereo partly drawn) [Example 7, 6-fluoro-1-(4-hydroxyphenyl)-7-((2R)-4-methyl-2-(((3-methylpyridin-2-yl)oxy)methyl)pyrrolidin-1-yl)-4-oxo-1,4-dihydroquinoline-3-carboxylic acid]
≤ 1000 nM	–	–	Cc1ccc(F)c(OC[C@H]2C[C@H]3C[C@H]3N2c2cc3c(cc2Cl)c(=O)c(C(=O)O)cn3-c2ccc(N(C)C)nc2)n1 [Compound 343, 6-Chloro-1-[6-(dimethyl-amino)pyridin-3-yl]-7-[(1R,3R,5R)-3-{[(3-fluoro-6-methylpyridin-2-yl)oxy]methyl}-2-azabicyclo [3.1.0]hexan-2-yl]-4-oxoquinoline-3-carboxylic acid]
